Test results as given in paper PMC5918145, “Quantification of amino acids and peptides in an ionic liquid based aqueous two-phase system by LC–MS analysis” (AMB Express, 2018).
“Also recorded” adds a separate entry of the source. Where two headings read alike, the source gives them in different places. Marks after values point to notes of the source that are not given here. Where a SMILES comes first, the peptide text is derived from it.

How the values were obtained:
[1] = Distribution ratio (logD) in ionic liquid-based aqueous two-phase system (Ammoeng 110/K2HPO4); details: Ammoeng 110 (0.60–0.65 g, filled to 4 g) / K2HPO4-KH2PO4 buffer, vortex 45 s, 5 min phase separation, LC–MS after EZ:faast SPE and derivatization (peptides after 6 M HCl hydrolysis, 20 h, 110 °C), duplicates, numbers only plotted (Fig. 2, Fig. 3)
[2] = set-up: method as in Kyte and Dolittle (1982); details: hydropathy scale; ref Kyte and Dolittle (1982); cited from earlier work
[3] = set-up: method as in 2 sources, ref Hardy (1985) ||| ref Jakubke and Jeschkeit (1982); details: isoelectric point of free amino acid, cited from earlier work

Row | Compound | Distribution in IL-ATPS (logD, D = c upper phase / c lower phase), in words ([1]; pH 6.0) | Distribution in IL-ATPS (logD, D = c upper phase / c lower phase), in words ([1]; pH 7.0) | Hydrophobicity of the side chain [2] | pI ([3]; ref Jakubke and Jeschkeit (1982)) | pI ([3]; ref Hardy (1985))
1 | C[C@H](N)C(=O)N[C@@H](C)C(=O)N[C@@H](CO)C(=O)N[C@@H](C)C(=O)N[C@@H](C)C(=O)O [AASAA] (H-AASAA-OH) | concentrated in the ionic liquid-containing upper phase | concentrated in the ionic liquid-containing upper phase |  |  | 
2 | C[C@H](N)C(=O)N[C@@H](C)C(=O)N[C@@H](Cc1c[nH]cn1)C(=O)N[C@@H](C)C(=O)N[C@@H](C)C(=O)O [AAHAA] | enriched in the upper phase | accumulation of AAHAA in the upper phase was also detected, but not as strong as at pH 6.0 |  |  | 
3 | N[C@@H](Cc1ccccc1)C(=O)O [Phenylalanine] | strongly enriched in the ionic liquids-containing upper phase | strongly enriched in the ionic liquids-containing upper phase | 2.8^c | 5.48^b | 
4 | N[C@@H](Cc1c[nH]cn1)C(=O)O [Histidine] | strongly enriched in the ionic liquids-containing upper phase | strongly enriched in the ionic liquids-containing upper phase |  |  | 7.59^a
5 | C[C@H](N)C(=O)N[C@@H](C)C(=O)N[C@@H](Cc1ccccc1)C(=O)N[C@@H](C)C(=O)N[C@@H](C)C(=O)O [AAFAA] (H-AAFAA-OH) | concentrated in the ionic liquid-containing upper phase | concentrated in the ionic liquid-containing upper phase |  |  | 
6 | NCC(=O)O [Glycine] | distributed equally between the ionic liquid-rich upper and the phosphate-rich lower phase | distributed more into the ionic liquid-rich upper phase |  |  | 5.97^a
7 | N[C@@H](CCC(=O)O)C(=O)O [Glutamic acid] | strongly enriched in the ionic liquids-containing upper phase | strongly enriched in the ionic liquids-containing upper phase |  |  | 3.24^a
8 | C[C@H](N)C(=O)N[C@@H](C)C(=O)NCC(=O)N[C@@H](C)C(=O)N[C@@H](C)C(=O)O [AAGAA] (H-AAGAA-OH) | almost equally distributed between the two phases | almost equally distributed between the two phases; also recorded: slightly more concentrated in the ionic liquid rich upper phase |  |  | 
9 | CC(C)C[C@H](NC(=O)[C@H](C)NC(=O)[C@H](C)N)C(=O)N[C@@H](C)C(=O)N[C@@H](C)C(=O)O [AALAA] (H-AALAA-OH) | almost equally distributed between the two phases | almost equally distributed between the two phases; also recorded: slightly more concentrated in the ionic liquid rich upper phase |  |  | 
10 | N[C@@H](CO)C(=O)O [Serine] | distributed equally between the ionic liquid-rich upper and the phosphate-rich lower phase | distributed more into the ionic liquid-rich upper phase |  |  | 5.68^a
11 | C[C@H](N)C(=O)N[C@@H](C)C(=O)N[C@@H](CC(=O)O)C(=O)N[C@@H](C)C(=O)N[C@@H](C)C(=O)O [AADAA] | concentrated in the ionic liquid-containing upper phase | concentrated in the ionic liquid-containing upper phase |  |  | 
12 | CC(C)C[C@H](N)C(=O)O [Leucine] | distributed equally between the ionic liquid-rich upper and the phosphate-rich lower phase | marginally higher concentrated in the phosphate buffer-rich lower phase |  |  | 
